# Test results taken from the supplement of paper PMC11208160.
# Test: recombinant barcode read abundance after kanamycin selection (control-corrected) (log10(CPM+1)); higher = more efficient recombination; sequences stand for … in AGTGCAGAGAAAATCGGCCAGTTTTCTCTGCCTGCAGTCCGCATGCCGT…AGATTTATGCAGCGGACTGCCTTTCTCCCAAAGTGATAAACCGGACAGTATCATGGACCGGTTTTCCCGGTAATCCGTATTTGCAAGGTTGGTTTCACT; site = the 11-nt target
# In short: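 Pooled E. coli screen pairing targets with IS621 bridge RNA target-binding loops. Each oligo (promoter, target, barcode, J23119-driven first 104 bridge RNA bases) was Gibson-cloned into a vector with the remaining 73 bp and T7-inducible recombinase, then co-electroporated with a donor plasmid. Two replicates each were plated on chloramphenicol/ampicillin LB agar (control) or chloramphenicol/ampicillin/kanamycin with 0.1 mM IPTG. Recombination efficiency is recombinant-junction barcode counts as CPM, averaged, control-corrected, reported as log10(CPM+1).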
# 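Also: IS621 recombinase and bridge RNA in Escherichia coli cells.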
row,Sequence,recombinant barcode read abundance (log10)
1,TCTTGGTCTTGGGTTCTAACCTGTTGCTA (site TCTTGGTCTTA),0.0413
2,CACGGGGCTTGGGTTCTAACCTGTTGCCT (site ATGCTACCTCC),0.0666
3,TGTGCCTCTTGGGTTCTAACCTGTTGCCT (site TGTTCCTCTAG),0.173
4,ACTTGTTCTTGGGTTCTAACCTGTTGCCT (site ACTTGTTCTAG),0.567
5,CTATGTGCTTGGGTTCTAACCTGTTGCTT (site CTATGTGCTAG),1.1
6,TGTTACCCTTGGGTTCTAACCTGTTGCCT (site TGTTACCCTAG),0.434
7,TAGGATGCTTGGGTTCTAACCTGTTGCGT (site TAGGATTCTAC),0.248
8,AACGTGTCTTGGGTTCTAACCTGTTGCCT (site AACGTGTCTAG),2.57
9,CAATGGTCTTGGGTTCTAACCTGTTGCAT (site CAATGGTCTAG),0.54
10,ATAAGCCCTTGGGTTCTAACCTGTTGCCT (site ATAAGCCCTAG),1.36
11,TCGAAGGCTTGGGTTCTAACCTGTTGCCT (site TCAAAGGCTAG),0.411
12,CACTTAGCTTGGGTTCTAACCTGTTGCCT (site CACTTAACTAG),0.559
13,GACGTACCTTGGGTTCTAACCTGTTGCCT (site GACGTACCTAG),1.31
14,GGCCGAACTTGGGTTCTAACCTGTTGCCT (site GGCCGAACTAG),0.211
15,TAGAAGACTTGGGTTCTAACCTGTTGCTG (site TAGAAGACTTA),0.639
16,TTAACTACTTGGGTTCTAACCTGTTGCTG (site TTAACTACTCA),0.425
17,CGATGACCTTGGGTTCTAACCTGTTGCAT (site CGATGGCCTAT),0.107
18,ACAGTCGCTTGGGTTCTAACCTGTTGCCT (site ACAGTCGCTAG),1.4
19,AGAGCGACTTGGGTTCTAACCTGTTGCCT (site AGAGAGACTAG),0.127
20,GAGAGGTCTTGGGTTCTAACCTGTTGCGT (site GAGAGGTCTAT),1.53
21,GCCTAGTCTTGGGTTCTAACCTGTTGCCA (site GCCTAGTCTTG),1.13
22,GAACTCCCTTGGGTTCTAACCTGTTGCGG (site GAACTCCCTCC),0.758

row,Sequence,recombinant barcode read abundance (log10)
1,TAGGACGCTTGGGTTCTAACCTGTTGCCT (site TAGGACGCTAG),2.53
2,TGTAATACTTGGGTTCTAACCTGTTGCCT (site TGTAATTCTAG),0.121
3,CGAAAATCTTGGGTTCTAACCTGTTGCCT (site CGTAAATCTAG),0.128
4,TATCGTCCTTGGGTTCTAACCTGTTGCAT (site TACCGTCCTAT),0.0483
5,GTCCCCTCTTGGGTTCTAACCTGTTGCCT (site GTCGCCTCTAG),0.109
6,TCGAACCCTTGGGTTCTAACCTGTTGCGA (site TCGTACCCTTC),0.0144
7,CCACGGCCTTGGGTTCTAACCTGTTGCAT (site CCTCGGCCTAT),0
8,CTCGTAGCTTGGGTTCTAACCTGTTGCGG (site CTCGTAGCTCC),1.23
9,ACATGAACTTGGGTTCTAACCTGTTGCAT (site ACATGCACTAT),0.111
10,TAGTCCGCTTGGGTTCTAACCTGTTGCCG (site TAGTCCGCTCG),0.446
11,CTGGTGCCTTGGGTTCTAACCTGTTGCCT (site CCGGTGCCTAG),0.116
12,GCTGCGCCTTGGGTTCTAACCTGTTGCCT (site GCCGGGCCTAG),0.225
13,TAACGTACTTGGGTTCTAACCTGTTGCAT (site TAACCTACTAT),0.135
14,CTCTAACCTTGGGTTCTAACCTGTTGCGT (site CTCTAACCTAC),1.45
15,CTCTAGACTTGGGTTCTAACCTGTTGCCT (site CTCTAGACTAG),0.0941
16,CATCCGACTTGGGTTCTAACCTGTTGCCT (site CATCCGCCTAG),0.163
17,CGTCCACCTTGGGTTCTAACCTGTTGCCT (site CGTCCACCTAG),0.0544
18,ATTAACCCTTGGGTTCTAACCTGTTGCCT (site AGTAACCCTAG),0.085
19,GGTTGAGCTTGGGTTCTAACCTGTTGCTG (site GGTGGGGCTCA),0.0323
20,GGGCCTGCTTGGGTTCTAACCTGTTGCCT (site GGGCCTGCTAG),2.1
21,CTCAATTCTTGGGTTCTAACCTGTTGCAT (site CTCGATTCTAT),0.27
22,CGGAGCCCTTGGGTTCTAACCTGTTGCCA (site CGGAGCCCTTG),0.883

row,Sequence,recombinant barcode read abundance (log10)
1,TAGGTGCCTTGGGTTCTAACCTGTTGCAT (site TAGGTTCCTAT),0.167
2,GTCAGCCCTTGGGTTCTAACCTGTTGCTG (site GTCAGCCCTCA),0.255
3,TTATTCACTTGGGTTCTAACCTGTTGCCT (site TTATTCACTAG),1.48
4,CCGTCCTCTTGGGTTCTAACCTGTTGCTG (site CCGTCCTCTCA),1.01
5,CGGTCTGCTTGGGTTCTAACCTGTTGCAT (site CGGTCTGCTAT),0.826
6,CATTCGCCTTGGGTTCTAACCTGTTGCGT (site CATTCGCCTAC),0.329
7,GATGGCCCTTGGGTTCTAACCTGTTGCCT (site GTTGGCCCTAG),0.127
8,TACCGGCCTTGGGTTCTAACCTGTTGCCT (site TAGCGGCCTAG),0.176
9,AGTAGACCTTGGGTTCTAACCTGTTGCTT (site AGTAGACCTAA),0.828
10,GCCATGACTTGGGTTCTAACCTGTTGCCT (site GCCATGACTAG),0.132
11,CATTCCTCTTGGGTTCTAACCTGTTGCCT (site CCTTCCTCTAG),0.122
12,CTAACCTCTTGGGTTCTAACCTGTTGCTA (site CTAACCTCTCA),0.0433
13,CTTCGTCCTTGGGTTCTAACCTGTTGCCT (site CTTCGTCCTAG),0.804
14,TTCACGTCTTGGGTTCTAACCTGTTGCCT (site TTCATGTCTAG),0.0406
15,CGGGCCACTTGGGTTCTAACCTGTTGCGT (site CGGGCCACTAC),2.99
16,TCTTGACCTTGGGTTCTAACCTGTTGCTT (site TCTTGACCTAA),0.242
17,ATGCAAACTTGGGTTCTAACCTGTTGCCT (site ATGCAAGCTAG),0.653
18,GCCCAATCTTGGGTTCTAACCTGTTGCCT (site GCCCAATCTAG),1.05
19,AGCTCATCTTGGGTTCTAACCTGTTGCCT (site AGCTCACCTAG),0.0516
20,ACTACCTCTTGGGTTCTAACCTGTTGCCT (site ATTACCTCTAG),0.0805
21,ATGGTGACTTGGGTTCTAACCTGTTGCCT (site ATGGTGTCTAG),0.0769
22,CGAAGCTCTTGGGTTCTAACCTGTTGCCT (site CGCAGCTCTAG),0.211
